These results are taken from paper PMC9898036, “VIP152 is a selective CDK9 inhibitor with pre-clinical in vitro and in vivo efficacy in chronic lymphocytic leukemia” (Leukemia, 2022).

What all share (format): binding
For one experiment, the target named is ACVR1B (Homo sapiens, UniProt P36896). Nature of the experiment: KINOMEscan: ACVR1B. Particulars: 1000 nM, read-out: Percent Control.
The target of another experiment is CAMK2B (Homo sapiens, UniProt Q13554). Nature of the experiment: KINOMEscan: CAMK2B. The conditions noted are these: 1000 nM, read-out: Percent Control.
Chain of CAMK2B (Q13554 whole entry): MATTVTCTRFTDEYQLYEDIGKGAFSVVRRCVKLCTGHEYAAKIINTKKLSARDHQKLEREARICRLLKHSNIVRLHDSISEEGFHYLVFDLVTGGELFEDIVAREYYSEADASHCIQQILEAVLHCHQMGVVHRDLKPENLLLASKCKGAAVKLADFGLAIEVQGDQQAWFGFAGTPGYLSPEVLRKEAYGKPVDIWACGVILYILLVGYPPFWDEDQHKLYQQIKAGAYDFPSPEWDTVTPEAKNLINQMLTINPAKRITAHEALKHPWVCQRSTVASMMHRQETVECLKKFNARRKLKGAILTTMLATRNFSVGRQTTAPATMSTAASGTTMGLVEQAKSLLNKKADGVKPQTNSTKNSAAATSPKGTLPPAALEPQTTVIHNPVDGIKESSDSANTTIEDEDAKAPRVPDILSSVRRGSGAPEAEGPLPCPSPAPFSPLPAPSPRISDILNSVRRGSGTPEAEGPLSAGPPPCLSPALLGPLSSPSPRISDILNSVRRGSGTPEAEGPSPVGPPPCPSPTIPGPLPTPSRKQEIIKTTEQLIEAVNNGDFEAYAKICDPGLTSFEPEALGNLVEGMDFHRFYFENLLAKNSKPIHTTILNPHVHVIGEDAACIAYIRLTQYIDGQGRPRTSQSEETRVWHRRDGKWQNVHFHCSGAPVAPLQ
A further experiment deals with Adenosine A3 (Homo sapiens, UniProt P0DMS8). Nature of the experiment: Eurofins Diversity Panel. The conditions noted are these: hum, Conc. 10 μM.
Chain of Adenosine A3 (P0DMS8 whole entry): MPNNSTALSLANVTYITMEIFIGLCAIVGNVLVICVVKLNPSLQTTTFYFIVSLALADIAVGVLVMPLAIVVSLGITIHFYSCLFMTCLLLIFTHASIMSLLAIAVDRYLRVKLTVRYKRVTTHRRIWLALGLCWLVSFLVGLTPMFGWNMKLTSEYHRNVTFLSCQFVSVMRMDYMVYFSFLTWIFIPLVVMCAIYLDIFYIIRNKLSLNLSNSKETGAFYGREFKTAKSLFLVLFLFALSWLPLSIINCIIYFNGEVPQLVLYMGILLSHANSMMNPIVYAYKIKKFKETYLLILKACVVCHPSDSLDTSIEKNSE
A further experiment deals with LYN (Homo sapiens, UniProt P07948). Nature of the experiment: KINOMEscan: LYN. The conditions noted are these: 1000 nM, read-out: Percent Control.
Chain of LYN (P07948 whole entry): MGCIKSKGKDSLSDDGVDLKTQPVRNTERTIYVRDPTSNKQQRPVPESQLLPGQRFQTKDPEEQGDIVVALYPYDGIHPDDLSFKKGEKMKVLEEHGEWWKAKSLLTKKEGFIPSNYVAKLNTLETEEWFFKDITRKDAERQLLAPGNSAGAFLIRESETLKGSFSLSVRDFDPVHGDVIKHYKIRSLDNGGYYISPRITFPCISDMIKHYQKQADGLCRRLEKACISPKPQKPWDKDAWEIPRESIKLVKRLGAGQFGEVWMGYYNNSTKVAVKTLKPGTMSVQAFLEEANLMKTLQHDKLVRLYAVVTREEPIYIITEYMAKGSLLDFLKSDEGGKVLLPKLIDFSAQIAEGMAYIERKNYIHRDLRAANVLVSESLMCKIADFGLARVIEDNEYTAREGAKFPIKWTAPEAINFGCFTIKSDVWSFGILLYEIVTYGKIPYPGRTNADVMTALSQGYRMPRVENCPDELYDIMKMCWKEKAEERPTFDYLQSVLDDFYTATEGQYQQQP

Chain of ACVR1B (P36896 24-505): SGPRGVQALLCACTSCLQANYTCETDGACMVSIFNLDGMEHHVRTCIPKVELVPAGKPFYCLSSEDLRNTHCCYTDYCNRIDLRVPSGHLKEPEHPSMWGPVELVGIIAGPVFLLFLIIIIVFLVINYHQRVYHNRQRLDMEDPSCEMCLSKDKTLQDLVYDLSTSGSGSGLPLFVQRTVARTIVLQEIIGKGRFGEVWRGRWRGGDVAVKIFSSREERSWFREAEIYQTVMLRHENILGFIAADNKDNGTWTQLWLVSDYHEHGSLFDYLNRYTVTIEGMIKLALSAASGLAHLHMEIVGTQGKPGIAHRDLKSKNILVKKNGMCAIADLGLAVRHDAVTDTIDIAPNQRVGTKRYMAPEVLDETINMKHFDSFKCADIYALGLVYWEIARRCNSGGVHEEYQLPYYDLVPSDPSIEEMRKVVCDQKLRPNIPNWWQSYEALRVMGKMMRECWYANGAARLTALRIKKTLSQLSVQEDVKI

As for `COc1cc(F)ccc1-c1cc(Nc2cc(CS(C)(=N)=O)ccn2)ncc1F` (stereo not shown) [VIP152], the remaining binding at 1 µM at ACVR1B was 96%; at CAMK2B, 65%; on LYN, 90%. In addition, at 10 µM the inhibition at Adenosine A3 was 43%.
